#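 How tested: cells in 96-well plates exposed to compound for 48 hours at five concentrations. Abbreviation: GI50, concentration required for 50% inhibition of growth. Definition used: TGI = concentration required for complete inhibition of growth.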
# Assays:
# Test in all cases: inhibition of tumour cell growth, NCI panel, 48 h
# [1] = test system: 786-0 renal
# [2] = test system: A498 renal
# [3] = test system: A549 NSCLC
# [4] = test system: ACHN renal
# [5] = test system: BT-549 breast
# [6] = test system: CCRF-CEM leukemia
# [7] = test system: DU-145 prostate
# [8] = test system: HCC-2998 colon
# [9] = test system: HCT-116 colon
# [10] = test system: HCT-15 colon
# [11] = test system: HOP-62 NSCLC
# [12] = test system: HS 578T breast
# [13] = test system: KM12 colon
# [14] = test system: M14 melanoma
# [15] = test system: MCF7 breast
# [16] = test system: NCI-H23 lung
# [17] = test system: NCI-H460 lung
# [18] = test system: NCI-H522 lung
# [19] = test system: NCI/ADR-RES ovarian
# [20] = test system: OVCAR-4 ovarian
# [21] = test system: OVCAR-8 ovarian
# [22] = test system: RPMI-8226 leukemia
# [23] = test system: SF-268 CNS
# [24] = test system: SF-539 CNS
# [25] = test system: SK-MEL-5 melanoma
# [26] = test system: SK-OV-3 ovarian
# [27] = test system: SN12C renal
# [28] = test system: SNB-19 CNS
# [29] = test system: SW-620 colon
# [30] = test system: T-47D breast
# [31] = test system: TK-10 renal
# [32] = test system: U251 CNS
# [33] = test system: UACC-257 melanoma
# [34] = test system: UACC-62 melanoma
structure (smiles),measurement,setting,value
Cc1cc(C)c(S(=O)(=O)N2CCN(c3cc4c(cc3F)c(=O)c(C(=O)O)cn4C3CC3)CC2)c(C)c1,GI50,[1],4.08 µM
same,TGI,[1],> 100 µM
same,GI50,[2],2.37 µM
same,TGI,[2],> 100 µM
same,GI50,[3],2.23 µM
same,TGI,[3],> 100 µM
same,GI50,[4],2.46 µM
same,TGI,[4],> 100 µM
same,GI50,[5],3.34 µM
same,TGI,[5],> 100 µM
same,GI50,[6],2.8 µM
same,TGI,[6],> 100 µM
same,GI50,[7],3.4 µM
same,TGI,[7],> 100 µM
same,GI50,[8],5.37 µM
same,TGI,[8],> 100 µM
same,GI50,[9],2.98 µM
same,TGI,[9],> 100 µM
same,GI50,[10],2.55 µM
same,TGI,[10],> 100 µM
same,GI50,[11],3.65 µM
same,TGI,[11],> 100 µM
same,GI50,[12],2.4 µM
same,TGI,[12],7.58 µM
same,GI50,[13],3.38 µM
same,TGI,[13],> 100 µM
same,GI50,[14],4.69 µM
same,TGI,[14],> 100 µM
same,GI50,[15],2.59 µM
same,TGI,[15],> 100 µM
same,GI50,[16],3.41 µM
same,TGI,[16],> 100 µM
same,GI50,[17],3.04 µM
same,TGI,[17],> 100 µM
same,GI50,[18],2.8 µM
same,TGI,[18],> 100 µM
same,GI50,[19],3.29 µM
same,TGI,[19],> 100 µM
same,GI50,[20],2.37 µM
same,TGI,[20],> 100 µM
same,GI50,[21],2.87 µM
same,TGI,[21],> 100 µM
same,GI50,[22],2.34 µM
same,TGI,[22],6.83 µM
same,GI50,[23],3.96 µM
same,TGI,[23],> 100 µM
same,GI50,[24],3.14 µM
same,TGI,[24],> 100 µM
same,GI50,[25],3.03 µM
same,TGI,[25],> 100 µM
same,GI50,[26],3.02 µM
same,TGI,[26],> 100 µM
same,GI50,[27],2.61 µM
same,TGI,[27],> 100 µM
same,GI50,[28],2.56 µM
same,TGI,[28],> 100 µM
same,GI50,[29],3.4 µM
same,TGI,[29],> 100 µM
same,GI50,[30],4.81 µM
same,TGI,[30],> 100 µM
same,GI50,[31],4.57 µM
same,TGI,[31],> 100 µM
same,GI50,[32],2.89 µM
same,TGI,[32],> 100 µM
same,GI50,[33],> 100 µM
same,TGI,[33],> 100 µM
same,GI50,[34],2.43 µM
same,TGI,[34],> 100 µM
